Usually melting point stands for the temperature of the solid-liquid transition.

`CCN(CC)CCOc1ccc(Oc2ccc(S(C)(=O)=O)cc2)cc1` yielded a melting point of 92.5 to 94 °C. `CCOC(=O)c1cnc2nc(C=CC(=O)O)c(OCC)cc2c1O` gave a melting point of over 280 °C.

In the case of `COc1ccc(N2C(=O)N(c3ccccc3)c3nc(Nc4ccccc4)ncc3C2C(C)C)cc1` (stereo unspecified), the melting point was 229 to 235 °C. The molecule `CC(=O)Nc1nnnn1CC(I)=C(I)I` displayed a melting point of 178 to 185 °C.

For the molecule `COc1ccc2cc([C@H](C)C(=O)OCC(=O)OC(C)(C)C)ccc2c1`, the melting point was 85 to 86 °C. `COc1cc(OC)cc(Oc2ccc(C(=O)N(C(C)C)C3CCCCC3)cc2)c1` registered a melting point of 140 °C. `CN(C(N)=O)C1CCCc2sccc21` (stereo unspecified) yielded a melting point of 152 to 154 °C. The molecule `CCOc1ccc2cc(N3CC(COC)OC3=O)ccc2c1` (stereo unspecified) had a melting point of 130 °C. For `COc1cc(OC)c(C=O)cn1` the value was 97 to 98 °C. `COc1ccc(N2CCN(c3cc4c(cc3-c3cccnc3)OC(C)(C)C4)CC2)cc1` returned a melting point of 177 to 180 °C.

`Cc1[nH]c(C(=O)NCC2CCCCC2)c(C)c1-c1nc2ccc(C(=O)c3ccccc3)cc2[nH]1` showed a melting point of 254 to 255 °C. In turn, `CSc1ccc(C2C(=O)c3ccccc3C2=O)cc1` returned a melting point of 153 to 155 °C. On to `CC(=O)Oc1ccc2c(c1)CCC1C2CCC2(C)C(OC(C)=O)CCC12` (stereo unspecified), for which the melting point is 128 to 129 °C.

For `CCCCCNc1ccc(OC2CCN(C(C)=O)CC2)cc1`, the melting point lay within 69 to 71 °C. `COC(=O)c1c(Cc2ccc(S(=O)(=O)CCO)cc2)c(=O)c2ccc(Cl)cc2n1-c1ccccc1` came in with a melting point of 172 to 174 °C. `Cc1c(Br)cccc1NCc1cc(C(C)(C)C)sc1C(=O)O` showed a melting point of 150 to 152 °C. `CC(=O)Nc1ccc(S(=O)(=O)N[C@H]2COCOC[C@H]2OC(C)=O)cc1` (relative stereo): the melting point lay within 184 to 186 °C.

The molecule `Clc1ccc2oc(C3CCNCC3)cc2c1` came in with a melting point of 77 to 78 °C.

`Cc1ccccc1N1CCN(Cc2c[nH]c3ncccc23)CC1` had a melting point of 174 to 176 °C.

In the case of `COc1ccc2cc(C=CC(C)OC(C)=O)ccc2c1` (stereo unspecified), the melting point was in the range of 78 to 80 °C. Turning to `C#CCCCCNC(=O)C(F)(F)F`, the melting point was in the range of 41 to 42.5 °C.

Regarding `O=C1Nc2cccnc2N(C(=O)CCN2CCN(Cc3ccccc3)CC2)c2ccccc21`, the melting point is 205 to 207 °C. For `O=C(NCc1ccccc1Cl)c1cccnc1OCc1cccnc1`, the melting point fell in the range of 91 to 93 °C.

`Cn1c(-c2ccccc2Cl)nnc1-c1ccccc1Cl` showed a melting point of 140 °C. On to `CC(C)c1nc(CN)n(C)c1Sc1cccc(Cl)c1`, for which the melting point lay in the range of 99 to 101 °C. For `ON=C1CCn2c(-c3ccccc3)nc3c(Cl)ccc1c32` the value was 251 to 252 °C. The molecule `CN(C)C(=O)N1Cc2c(-c3noc(C4CC4)n3)ncn2-c2ccc(Cl)cc21` displayed a melting point of 254 to 256 °C. The result for `CC(=O)N1c2ccc(-c3ccc(C=O)cc3)cc2C(NC=O)CC1C` (stereo unspecified) reads 85.6 °C; that for `Cc1noc(NS(=O)(=O)c2ccsc2C(=O)Nc2ccccc2)c1C`, 176 °C. In turn, `CC(C)(C)c1ccc(N2C(=O)c3ccc4c5cccc6cccc(c7ccc(c3c47)C2=O)c65)cc1` had a melting point of over 330 °C. In turn, `CC(=O)OC1C(C)OC(n2c(Br)nc3cc(Cl)c(Cl)cc32)C1OC(C)=O` (stereo unspecified) yielded a melting point of 145 to 148 °C. On to `C[C@@H]1NC(=O)[C@H]2Cc3c([nH]c4ccccc34)[C@@H](c3ccc4occc4c3)N2C1=O`, for which the melting point fell in the range of 150 to 151 °C. For `COc1cncnc1N1CCN(CCCc2c[nH]c3ccc(CNC(C)=O)cc23)CC1` the value was 169 to 174 °C.

As to `CCCCCCCCCCCCCCCCCCNC(=O)OCC(CNS(=O)(=O)CCCI)COC` (stereo unspecified), the melting point fell in the range of 69 to 70 °C. `CC1CC2C3CCC4=CC(=O)C=CC4(C)C3=CCC2(C)C1C(=O)COS(=O)(=O)c1ccc(Br)cc1` (stereo unspecified) yielded a melting point of 124 to 129 °C.

`CC(C)Nc1nc2cc(Cl)c(Cl)cc2n1[C@H]1O[C@@H](C)[C@H](O)[C@@H]1O` showed a melting point of 103 to 105 °C. As to `COC(=O)c1cc2ccccc2n1C1=CC(C)(C)Oc2ccc(C#N)cc21`, the melting point lay within 197 to 200 °C. For `CCOC(=O)c1cnc2scc(C)c2c1O`, the melting point fell in the range of 189 to 192 °C. Take `Cc1ccc2c(c1)C1=NN(c3ccc(OCCCN4CCCCC4)cc3)C(=O)CC1CC2` (stereo unspecified): the melting point lay within 171 to 172 °C. `CCCCC1(Cn2ccnc2)SCCS1` displayed a melting point of 131 to 135 °C.

`Cc1c[nH]c(Cc2ccccc2[N+](=O)[O-])n1` yielded a melting point of 125 to 128 °C. Take `Cc1nc2c(OCc3c(Cl)ccc(N(C)C=O)c3Cl)cccn2c1Br`: the melting point was 207 to 209 °C.

Consider `COC(=O)c1cccc(-c2cn(C)cc(-c3ccc(C)cc3)c2=O)c1`, for which the melting point fell in the range of 85 to 88 °C.

`OCc1coc(-c2cccs2)n1` had a melting point of 98 to 99 °C. Molecule `O=C(Nc1ccccc1C(=O)NCCc1ncc[nH]1)c1ccc(C(F)(F)F)cc1` came in with a melting point of 207 to 215 °C. The result for `Cc1noc(-c2ccc(Cl)cc2)c1-c1ccc(S(N)(=O)=O)cc1` reads 194 to 197 °C; that for `CC(=O)OC1CC2C1N(C(C)=O)C(=O)N2C(C)=O` (stereo unspecified), 148 to 150 °C. `Cc1c(C)c(N2Cc3ccccc3C2)c(C)c2c1OC(C)(C)C2c1ccccc1` (stereo unspecified): the melting point is 164 to 166 °C. The result for `CCOC(=O)c1ccc(NC(=N)c2ccc(OC)cc2)cc1` reads 128 to 132 °C; that for `COc1cc2sc(C(=N)NO)cc2c(F)c1OC`, 186 to 190 °C. For `Clc1ccc(COC(CNc2ccc(Cl)c(Cl)c2)Cn2ccnc2)cc1` (stereo unspecified) the value was 102 to 103 °C; for `CCOC(=O)C1=C(N)Nc2ccnc(OC(C)C)c2C1c1ccccc1C(F)(F)F` (stereo unspecified), 173 to 175 °C; for `CC(C)(C)OC(=O)CCc1nc(C(=O)OC(C)(C)C)ccc1O`, 172 to 174 °C. Molecule `COc1ccc(/C=C/C(=O)N(C)CC(O)CO)cc1` (stereo unspecified) registered a melting point of 81 to 83 °C. For the molecule `CCc1nn(CCN)c(CC)c1Cc1cc(C#N)cc(C#N)c1`, the melting point was in the range of 100 to 105 °C. For `O=C(CC1NCCCC1O)Cn1cnc2cc(Br)c(Cl)cc2c1=O` (stereo unspecified) the value was 205 °C. Turning to `CCCCCCCCCCCCCC(=O)Oc1ccc([N+](=O)[O-])cc1OC(=O)CCCCCCCCCCCCC`, the melting point was 58 to 60 °C. Consider `Cc1nccn1C(C)CC(O)(c1ccccc1)c1ccccc1` (stereo unspecified), for which the melting point was in the range of 168 to 169 °C. In turn, `Nc1ccc(C(=O)N2CCOCC2)cc1OCc1ccc(-c2ccccc2-c2nnnn2C(c2ccccc2)(c2ccccc2)c2ccccc2)cc1` yielded a melting point of 95 to 105 °C.

As to `CCOC(=O)C1(C)Cc2cc(Cl)cc([N+](=O)[O-])c2O1` (stereo unspecified), the melting point fell in the range of 69 to 72.5 °C. `CCN(CC)c1nc2ccnn2c2ncccc12` returned a melting point of 102 °C. With `CCc1cccc(CC)c1NC(=O)CCSc1cc(C(C)(C)C)c(O)c(C(C)(C)C)c1`, the melting point is 150 to 152 °C. The result for `CC(C)(C)OC(=O)NCCOC(=O)COc1ccc(CCCCN(C(=N)N)C(=O)c2nc(Cl)c(N)nc2N)cc1` reads 80 to 82 °C; that for `Cc1cc(=O)n2ncn(N)c2n1`, 202 to 204 °C; that for `Cc1cc(C)c2nc(C(=O)O)cc(-c3ccccc3Cl)c2c1`, 234 to 235 °C.

In turn, `CC(C)(C)c1cc(C=CC#N)cc(C(C)(C)C)c1O` came in with a melting point of 109 to 113 °C.

In turn, `CCCCCCCCCCCCc1nnn(C(C)C(=O)Nc2c(OC)cc(OC)cc2OC)n1` (stereo unspecified) showed a melting point of 155 to 157 °C. The result for `Cc1cc(-n2ncc(=O)[nH]c2=O)cc(Cl)c1C(C)(C#N)c1ccc(Cl)cc1` (stereo unspecified) reads 227 °C; that for `CN1CC(C(=O)COC(=O)c2cncc(Br)c2)CC2c3cccc4[nH]cc(c34)CC21` (stereo unspecified), 185 to 187 °C.

With `CC1(C)CCC(N2c3ccccc3Oc3ccc(Cl)cc32)=N1`, the melting point was 118 to 120 °C. The result for `COCC1(CCCCCCCCCCCCC2(C(=O)O)CC2)CC1` reads 36.4 to 37.6 °C; that for `O=c1cc(-c2nc3ccccc3[nH]2)oc2ccccc12`, 232 °C.

On to `CCOC(=O)c1cc(=O)c2ccc3nc(C(=O)OC)cc(Cl)c3c2o1`, for which the melting point was determined as 209 °C. In turn, `CC1(C)CC(=O)c2c(O)ccc(Br)c2C1` yielded a melting point of 65 to 67 °C. As for `CCOC(=O)c1c(O)c2cc(F)ccc2n(C)c1=O`, the melting point came out at 131 °C. `C=CCOc1cc(N)c(Cl)cc1C(=O)O`: the melting point lay in the range of 136 to 137 °C.

As to `CCOC(=O)N1CC(C)(C)CSC1=Nc1ccccc1C(C)C`, the melting point fell in the range of 84 to 86 °C.

Regarding `COc1nc(C)c(C(C)=O)cc1NC(=O)N1CCN(c2cc(C)cc(C)c2)CC1`, the melting point lay within 66 to 69 °C. For `O=C1c2cc(O)ccc2OCC1Oc1ccccc1` (stereo unspecified) the value was 142 to 146 °C; for `COCC(=O)Nc1nc2c(C)cccc2s1`, 110 to 111 °C; for `CC(C)(C)[N+]([O-])=Cc1c(O)cc(O)cc1O`, 190 °C. Regarding `COC(=O)c1ccc(O)c(C(=O)CC(=O)c2cc(C)ccc2OC(C)C)c1`, the melting point was in the range of 85 to 86 °C. `O=C(O)CCSC1c2ccccc2COc2ccc(OCc3ccc4cc(F)ccc4n3)cc21` (stereo unspecified) registered a melting point of 167 to 171 °C. `Cc1[nH]c2cccnc2c1-c1ccc(F)cc1`: the melting point fell in the range of 199 to 206 °C.

Take `Cc1ccc(O[C@@H]2CCNC[C@H]2O)cc1C` (relative stereo): the melting point lay within 125 to 127 °C. On to `O=C(NO)C1(NS(=O)(=O)c2ccc(Oc3ccc(F)cc3)cc2)CCOCC1`, for which the melting point lay in the range of 176 to 177 °C. `Cc1cccc(-c2nc(N)sc2-c2ccc3ncccc3n2)n1` registered a melting point of 188 °C. `CCOCCn1cccc1-c1nc(-c2ccc(OC)cc2)c(-c2ccc(OC)cc2)s1` came in with a melting point of 68 to 71 °C.

With `CCn1nc(OCCCc2ccc(OC(C)C)cc2OCc2ccc(C(F)(F)F)cc2)cc1CCC(=O)O`, the melting point lay in the range of 75 to 76 °C. The molecule `COc1cc2c(cc1F)CCC2=O` gave a melting point of 152 to 154 °C.

Turning to `COc1ccc(NC(=O)CBr)c(C(=O)O)c1`, the melting point lay within 172 to 173 °C.

The values above are taken from a melting point compilation (Tetko et al.; mined from patent text by program, amines drawn as free bases though some values may be those of a salt).
